Data as given in patent US20070015733A1, “Aryl Phosphate Derivatives of d4T having Activity Against Resistant HIV Strains” (Parker Hughes Institute, priority 1998, published 2007).
Where two headings read alike, the source gives them in different places.

Key:
Format in all cases: cell-based
[1] = system: zidovudine-resistant primary clinical HIV-1 isolates; assay: p24 drug susceptibility assay, NRTI-/zidovudine-resistant primary clinical HIV-1 isolates in PBMC
Procedure: Viruses. […] The HIV-1 strains HTLVIIIB (wildtype RT, NRTI-sensitive, NNRTI-sensitive), A17 (Y181 C mutant, NNRTI-resistant), A17-variant (Y181C+K103N mutant, NNRTI-resistant), and RT-MDR (M41 L, V106N, T215Y; NRTI-resistant, NNRTI-resistant) were also obtained from the AIDS Research and Reference Reagent Program, NIAID.
Antiviral susceptibility assays. Phenotypic drug susceptibility studies of HIV-1 isolates and strains were performed by measuring the production of the p24 gag protein in peripheral blood mononuclear cells (PBMC) from seronegative healthy volunteers in the presence of increasing concentrations of the anti-HIV agent using the quantitative Coulter HIV-1 p24 antigen ezyme immunoassay (EIA) and HIV-1 p24 Antigen Kinetic Standard (Beckman Coulter), as previously described (Uckun, 1998, Antimicrobial Agents and Chemotherapy 37(4): 835-38). Informed consent was obtained from the blood donors according to DHHS guidelines using consent forms approved by the Institutional Review Board. In brief, PBMC were cultured for 72 h in RPMI 1640 medium (Gibco) supplemented with 20% (vol/vol) heat-inactivated fetal bovine serum, 5% human interleukin-2 (Zeptometrix), 2 mM L-glutamine, 25 mM HEPES, 2 g/L NaHCO3, 100 U/ml penicillin/streptomycin (Gibco), 50 μg/ml gentamicin (Gibco), and 5 μg/ml phytohemagglutinin-P (PHA-P) (Sigma) for 24-72 hours prior to exposure to HIV at a multiplicity of infection of 0.001-0.1 during a 1-h adsorbtion period at 37±1° C. in a humidified 5-7% CO2 atmosphere. Subsequently, cells were cultured in 96-well microtiter plates (100 μl/well; 2×10^6 cells/ml, triplicate wells) in the presence of the anti-HIV agents at 6-7 different concentrations ranging from 0.0001 μM to 100 μM, and 25 μL aliquots of culture supernatants were removed from the wells on day 6 after infection for p24 EIA, as previously described (Uckun, 1998, Antimicrobial Agents and Chemotherapy, 37(4):835-38). Controls included uninfected and untreated cells (background control) and infected but untreated (virus control) cells. The p24 EIA utilizes a murine monoclonal antibody to HIV core protein used to coat microwell strips to which the antigen present in the test culture supernatant samples binds. Percent inhibition of viral replication was calculated by comparing the p24 values from the test substance-treated infected cells with p24 values from untreated infected cells (i.e., virus controls). The IC50 values were determined using the Statview statistics program (SAS Institute, Inc.). In parallel, the effects of various treatments on cell viability were also examined as previously described (Uckun, 1998, Antimicrobial Agents and Chemotherapy, 42:383-388). In brief, noninfected PBMC were treated with each compound for 5 days under identical experimental conditions. A microculture tetrazolium assay (MTA) was performed to quantitate cellular proliferation (Uckun, 1998, Antimicrobial Agents and Chemotherapy, 42:383-388).
Phenotypic drug susceptibility studies of HIV-1 isolates and strains were performed by measuring the production of the p24 gag protein in peripheral blood mononuclear cells (PBMC) from seronegative healthy volunteers in the presence of increasing concentrations of the anti-HIV agent using the quantitative Coulter HIV-1 p24 antigen enzyme immunoassay (EIA) and HIV-1 p24 Antigen Kinetic Standard (Beckman Coulter), as previously described. StatView was used in the calculation of the IC50 values from each set of triplicate wells using the linearized form of an exponential equation (lnY=lnb0+b1X; where Y=% inhibition, X=drug concentration). The inhibition constants were log10 transformed to homogenize the variances within each group. […] P-values below 0.05 were deemed significant (JMP Software, SAS).

HIV-2 (Strain: CBL-20) = assay: Inhibition of HIV-2 replication in PBMNC (RT activity)
Procedure: (P-AZT) and with AZT. The incubation and analysis methods used were as described above for Example 3.
(§1) Cellular Assays of Anti-HIV Activity and Cytotoxicity. […] Percent viral inhibition was calculated by comparing the RT activity values from the test substance-treated infected cells with RT values from untreated infected cells (i.e., virus controls).

[2] = system: AZT- and NNI-resistant HIV-1 (strain: RTMDR-1); assay: Inhibition of RTMDR-1 (HIV-MDR) replication in PBMNC (RT activity)
Procedure: as §1

Cc1cn([C@H]2C[C@H](N=[N+]=[N-])[C@@H](CO)O2)c(=O)[nH]c1=O [AZT, 3′-azido-3′-deoxythymidine]
IC50 ([1]; Human immunodeficiency virus 1, PBMC, isolate 92BR019 (D67N, L214F, T215D, K219Q), PBMC): 0.2 µM | IC50 ([1]; Human immunodeficiency virus 1, PBMC, isolate C140 (M41L, M184V, T215Y), PBMC): 0.1 µM | IC50 ([1]; Human immunodeficiency virus 1, PBMC, isolate C140, PBMC, p24): 0.1 µM | IC50 ([1]; Human immunodeficiency virus 1, PBMC, isolate C467-4 (K20R, D67N, K70R, Y188L, T215F, K219Q), PBMC): 3.2 µM | IC50 ([1]; Human immunodeficiency virus 1, PBMC, isolate G190-6, PBMC, p24): > 3.2 µM | IC50 ([1]; Human immunodeficiency virus 1, PBMC, isolate G691-2 (mutations N.D.), PBMC): 2.6 µM | IC50 ([1]; Human immunodeficiency virus 1, PBMC, isolate G704-2, PBMC, p24): 1.8 µM | IC50 ([1]; Human immunodeficiency virus 1, PBMC, isolate G780-1 (M41L, D67N, K70R, T215F, K219Q), PBMC): > 3.2 µM | IC50 ([1]; Human immunodeficiency virus 1, PBMC, isolate G780-1, PBMC, p24): > 3.2 µM | IC50 ([1]; Human immunodeficiency virus 1, PBMC, isolate G890-1 (K20R, M41L, D67N, T69N, K70R, L210W, T215Y), PBMC): > 3.2 µM | IC50 ([1]; Human immunodeficiency virus 1, PBMC, isolate G890-1, PBMC, p24): > 3.2 µM | IC50 ([1]; Human immunodeficiency virus 1, PBMC, isolate P798-1 (M41L, T215Y), PBMC): 1.8 µM | IC50 ([1]; Human immunodeficiency virus 1, PBMC, isolate Q252-2 (M41L, L210W, T215Y), PBMC): 1.7 µM | IC50 ([1]; Human immunodeficiency virus 1, PBMC, isolate R416-10 (M41L, T215Y), PBMC): 0.3 µM | IC50 ([1]; Human immunodeficiency virus 1, PBMC, isolate S159-2 (M41L, K103N, T215Y), PBMC): 0.7 µM | IC50 ([1]; Human immunodeficiency virus 1, PBMC, isolate S762-4 (M41L, T215Y), PBMC): 1.2 µM | IC50 ([1]; Human immunodeficiency virus 1, PBMC, isolate T156-3 (M41L, E44D, D67N, T69D, L210W, T215Y), PBMC): > 3.2 µM | IC50 ([1]; Human immunodeficiency virus 1, PBMC, isolate T156-3, PBMC, p24): > 3.2 µM | IC50 ([1]; Human immunodeficiency virus 1, PBMC, isolate X165-8 (D67N, T69N, K70R, K103N, Y181C, T215F, K219E), PBMC): 0.9 µM | IC50 ([1]; Human immunodeficiency virus 1, PBMC, isolate X165-9 (K20R, D67N, K103N, T215Y), PBMC): 0.9 µM | IC50 ([1]; Human immunodeficiency virus 1, PBMC, isolate X267-1 (L74V), PBMC, p24): 0.6 µM | IC50 ([1]; Human immunodeficiency virus 1, PBMC, isolate X267-1 (M41L, L74V, L210W, T215Y), PBMC): 0.6 µM | IC50 ([1]; Human immunodeficiency virus 1, PBMC, isolate X267-2 (M41L, T215Y), PBMC): 0.4 µM | IC50 ([1]; Human immunodeficiency virus 1, PBMC, isolate X267-5 (M41L, F116S, T215Y), PBMC): 0.6 µM | IC50 ([1]; Human immunodeficiency virus 1, PBMC, isolate Y270-7 (M41W, Y188L, T215N), PBMC): 1.5 µM | IC50 ([1]; Human immunodeficiency virus 1, PBMC, read-out: IC50, μM, Mean ± SE, mean over 20 zidovudine-resistant primary clinical isolates): 1.6 ± 0.5 µM | IC50 ([1]; Human immunodeficiency virus 1, PBMC, read-out: mean IC50 value, NRTI-resistant isolates with 5 thymidine analog mutations (Group 1 in Table 19)): 2.6 µM | IC50 ([1]; Human immunodeficiency virus 1, PBMC, read-out: mean IC50 value, isolates with M184V plus multiple thymidine analog mutations (Group 2 in Table 19)): 0.134 ± 0.0188 µM | IC50 ([1]; isolate G704-2 (M41L, D67N, K70R, L210W, T215Y), PBMC, listed as zidovudine): > 10 µM | IC50 ([1]; isolate G910-6 (M41L, D67N, K70R, T215Y, K219Q), PBMC, listed as ZDV(AZT)): > 3.2 µM | IC50 ([1]; isolate G910-6 (M41L, D67N, K70R, T215Y, K219Q), PBMC, listed as zidovudine): > 10 µM | IC50 (HIV-2 (Strain: CBL-20); Human immunodeficiency virus 2, Table 3, unit inferred, read-out: HIV-2 IC50 [RT]): 2.4 µM | antiviral activity against HIV-2 (in words) (HIV-2 (Strain: CBL-20); PBMNC): not effective | IC50 ([2]; Human immunodeficiency virus 1, read-out: HIV-MDR IC50 [RT]): 2 µM | IC50 ([2]; Human immunodeficiency virus 1, read-out: IC50 against HIV-MDR): 2 µM | IC50 ([2]; Human immunodeficiency virus 1, read-out: RTMDR-1 IC50 [RT]): 2 µM | antiviral activity against RTMDR-1 (in words) ([2]; PBMNC): not effective
